Results from patent publication US10966426B2, “Herbicidal compositions comprising phenylpyrimidines” (BASF SE, priority 2016, dated 2021).

Tests used:
Assay type in all cases: in vivo
[1] = tested on: Matricaria chamomilla; experiment: greenhouse post-emergence treatment, MATCH; settings: for % activity: 20 DAT
Method in brief: (§1)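 Each species was grown separately and treated once it reached 3 to 15 cm, using actives suspended or emulsified in water. Plants were kept at 10-25° C. or 20-35° C., depending on species. Damage is a 0–100 rating taken during 2 to 4 weeks.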

[2] = tested on: Polygonum convolvulus; experiment: greenhouse post-emergence treatment, POLCO
Method in brief: as §1

[3] = tested on: Ambrosia elatior; experiment: greenhouse post-emergence treatment, AMBEL; settings: for % activity: 20 DAT
Protocol: (§2) The culture containers used were plastic pots containing loamy sand with approximately 3.0% of humus as substrate. The seeds of the test plants were sown separately for each species.
(§3) For the post-emergence treatment, the test plants were grown to a plant height of from 3 to 15 cm, depending on the plant habit, and only then treated with the active compounds which had been suspended or emulsified in water. To this end, the test plants were either sown directly, and grown in the same containers, or they were first grown separately as seedlings and transplanted into the test containers a few days prior to treatment.
(§4) Depending on the species, the plants were kept at 10-25° C. and 20-35° C., respectively.
(§5) The test period extended over 2 to 4 weeks. During this time, the plants were tended and their response to the individual treatments was evaluated.
(§6) Evaluation was carried out using a scale from 0 to 100. 100 means no emergence of the plants, or complete destruction of at least the above-ground parts, and 0 means no damage or normal course of growth. A good herbicidal activity is given at values of at least 70, and very good herbicidal activity is given at values of at least 85.
(§7) The respective stated components A and B, and if appropriate, C were formulated as a 10% by weight strength emulsion concentrate and, with addition of the amount of solvent system, introduced into the spray liquor used for applying the active compound. In the examples, the solvent used was water.
(§8) In the examples below, using the method of S. R. Colby (1967) “Calculating synergistic and antagonistic responses of herbicide combinations”, Weeds 15, p. 22ff., the value E, which is expected if the activity of the individual active compounds is only additive, was calculated. E=X+Y−(X·Y/100) where X=effect in percent using herbicide A at an application rate a; • Y=effect in percent using herbicide B at application rate b; • E=expected effect (in %) of herbicide A+herbicide B at application rates a+b.

[4] = tested on: Galium aparine; experiment: greenhouse post-emergence treatment, GALAP; settings: for % activity: 20 DAT
Method in brief: as §1

[5] = tested on: Digitaria sanguinalis; experiment: greenhouse post-emergence treatment, DIGSA; settings: for % activity: 20 DAT
Method in brief: (§9)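 Scoring ran on a 0-100 scale, 100 meaning no emergence or destroyed above-ground parts, over a 2-4 week period; Colby formula E=X+Y−(X·Y/100) gave expected mixture effects. Species grew separately in loamy sand (about 3.0% humus) at 10-25° C or 20-35° C, with water as solvent.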

[6] = tested on: Stellaria media; experiment: greenhouse post-emergence treatment, STEME
Method in brief: (§10)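 Post-emergence greenhouse spray on 3–15 cm plants, sown direct or transplanted a few days before treatment. Scored visually on a 0–100 scale after 2 to 4 weeks; expected additive effect computed by Colby: E=X+Y−(X·Y/100).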

[7] = tested on: Papaver rhoeas; experiment: greenhouse post-emergence treatment, PAPRH; settings: for % activity: 20 DAT
Method in brief: as §1

[8] = tested on: Setaria viridis; experiment: greenhouse post-emergence treatment, SETVI; settings: for % activity: 20 DAT
Method in brief: as §9

[9] = tested on: Echinocloa crus-galli; experiment: greenhouse post-emergence treatment, ECHCG
Protocol: as §2, §3, §4, §5, §6, §7, §8

[10] = tested on: Lolium multiflorum; experiment: greenhouse post-emergence treatment, LOLMU
Method in brief: as §9

[11] = tested on: Brachiaria decumbens; experiment: greenhouse post-emergence treatment, BRADC; settings: Urochloa decumbens, 504 h, 21 DAT, BRADC
Method in brief: as §10

[12] = tested on: Alopecurus myosuroides; experiment: greenhouse post-emergence treatment, ALOMY; settings: Alopecurus myosuroides, 504 h, 21 DAT, ALOMY
Method in brief: as §9

[13] = tested on: Avena fatua; experiment: greenhouse post-emergence treatment, AVEFA; settings: Avena fatua, 504 h, 21 DAT, AVEFA
Method in brief: as §9

[14] = tested on: Poa annua; experiment: greenhouse post-emergence treatment, POAAN; settings: Poa annua, 504 h, pyroxasulfone solo 15 gai/ha, 21 DAT, POAAN
Protocol: as §2, §3, §4, §5, §6, §7, §8

[15] = tested on: Bromus sterilis; experiment: greenhouse post-emergence treatment, BROST; settings: Bromus sterilis, 504 h, 21 DAT, BROST
Method in brief: as §9

[16] = 20 DAT, mesosulfuron solo 2 gai/ha

`COC(=O)c1ccc(CNS(C)(=O)=O)cc1S(=O)(=O)NC(=O)Nc1nc(OC)cc(OC)n1` [mesosulfuron] was tested, and the “% activity” value ([1]; mesosulfuron solo 1 gai/ha) was 30%, the “% activity” value ([1]; mesosulfuron solo 2 gai/ha) was 30% and the “% activity” value ([1]; mesosulfuron solo 8 gai/ha) was 90%. The “% activity” value ([1]; mesosulfuron solo 9 gai/ha) was 90%, the “% activity” value ([1]; mesosulfuron solo (Mesosulfuron - Methyl WG […]), 2 gai/ha, MATCH) was 30% and the “% activity” value [2, 16] was 30%. The “% activity” value ([3]; mesosulfuron solo 2 gai/ha) was 80%, the “% activity” value ([3]; mesosulfuron solo 4 gai/ha) was 85% and the “% activity” value ([4]; mesosulfuron solo 4 gai/ha) was 65%. For the same compound, the “% activity” value ([4]; mesosulfuron solo 8 gai/ha) was 75%, the “% activity” value ([4]; mesosulfuron solo (Mesosulfuron - Methyl WG […]), 1 gai/ha, GALAP) was 55% and the “% activity” value ([4]; mesosulfuron solo (Mesosulfuron - Methyl WG […]), 2 gai/ha, GALAP) was 65%. For the same compound, the “% activity” value ([4]; mesosulfuron solo (Mesosulfuron - Methyl WG […]), 4 gai/ha, GALAP) was 65%, the “% activity” value ([4]; mesosulfuron solo (Mesosulfuron - Methyl WG […]), 8 gai/ha, GALAP) was 75% and the “% activity” value ([5]; mesosulfuron solo 1 gai/ha) was 0%. For the same compound, the “% activity” value ([5]; mesosulfuron solo 2 gai/ha) was 0%, the “% activity” value ([5]; mesosulfuron solo 4 gai/ha) was 20% and the “% activity” value ([6]; 20 DAT, mesosulfuron solo 1 gai/ha) was 95%. For the same compound, the “% activity” value ([7]; mesosulfuron solo 1 gai/ha) was 70%, the “% activity” value ([7]; mesosulfuron solo 2 gai/ha) was 90% and the “% activity” value ([7]; mesosulfuron solo 8 gai/ha) was 98%. The “% activity” value ([7]; mesosulfuron solo (Mesosulfuron - Methyl WG […]), 1 gai/ha, PAPRH) was 70%, the “% activity” value ([8]; mesosulfuron solo 8 gai/ha) was 85% and the “% activity” value ([8]; mesosulfuron solo (Mesosulfuron - Methyl WG […]), 8 gai/ha, SETVI) was 85%. For the same compound, the “% activity” value [9, 16] was 0% and the “% activity” value ([10]; 20 DAT, mesosulfuron solo 8 gai/ha) was 90%.
`Cn1nc(C(F)(F)F)c(CS(=O)(=O)C2=NOC(C)(C)C2)c1OC(F)F` [pyroxasulfone] was tested, and the pest or weed control at 15 g/ha ([1]; Matricaria chamomilla, 504 h, MATCH, solo pyroxasulfone (WG 85%) 15 gai/ha, 21 DAT) was 0%, the inhibition at 15 g/ha ([1]; Matricaria chamomilla, 504 h, pyroxasulfone solo 15 gai/ha, 21 DAT, MATCH) was 0% and the inhibition at […] ([11]; pyroxasulfone solo 7.5 gai/ha) was 0%. It also gave an inhibition at 30 g/ha ([11]; pyroxasulfone solo 30 gai/ha, read-out: % activity) of 55%, an inhibition at 60 g/ha ([11]; pyroxasulfone solo 60 gai/ha, read-out: % activity) of 75% and a pest or weed control at […] ([2]; Fallopia convolvulus, 504 h, POLCO, solo pyroxasulfone (WG 85%) 7.5 gai/ha, 21 DAT) of 30%. It also gave a pest or weed control at 15 g/ha ([2]; Fallopia convolvulus, 504 h, POLCO, solo pyroxasulfone (WG 85%) 15 gai/ha, 21 DAT) of 30%, a pest or weed control at 30 g/ha ([2]; Fallopia convolvulus, 504 h, POLCO, solo pyroxasulfone (WG 85%) 30 gai/ha, 21 DAT) of 30% and a pest or weed control at 60 g/ha ([2]; Fallopia convolvulus, 504 h, POLCO, solo pyroxasulfone (WG 85%) 60 gai/ha, 21 DAT) of 30%. It also gave an inhibition at […] ([2]; Fallopia convolvulus, 504 h, pyroxasulfone solo 7.5 gai/ha, 21 DAT, POLCO) of 30%, an inhibition at 15 g/ha ([2]; Fallopia convolvulus, 504 h, pyroxasulfone solo 15 gai/ha, 21 DAT, POLCO) of 30% and an inhibition at 30 g/ha ([2]; Fallopia convolvulus, 504 h, pyroxasulfone solo 30 gai/ha, 21 DAT, POLCO) of 30%. For the same compound, the inhibition at 60 g/ha ([2]; Fallopia convolvulus, 504 h, pyroxasulfone solo 60 gai/ha, 21 DAT, POLCO) was 30%, the inhibition at 30 g/ha ([3]; Ambrosia artemisiifolia, 504 h, pyroxasulfone solo 30 gai/ha, 21 DAT, AMBEL) was 20% and the inhibition at 60 g/ha ([3]; Ambrosia artemisiifolia, 504 h, pyroxasulfone solo 60 gai/ha, 21 DAT, AMBEL) was 60%. The pest or weed control at 15 g/ha ([4]; Galium aparine, 504 h, GALAP, solo pyroxasulfone (WG 85%) 15 gai/ha, 21 DAT) was 70%, the inhibition at […] ([4]; Galium aparine, 504 h, pyroxasulfone solo 7.5 gai/ha, 21 DAT, GALAP) was 40% and the pest or weed control at […] ([5]; Digitaria sanguinalis, 504 h, DIGSA, solo pyroxasulfone (WG 85%) 7.5 gai/ha, 21 DAT) was 0%. The pest or weed control at 15 g/ha ([5]; Digitaria sanguinalis, 504 h, DIGSA, solo pyroxasulfone (WG 85%) 15 gai/ha, 21 DAT) was 0%, the inhibition at 30 g/ha ([6]; Stellaria media, 504 h, pyroxasulfone solo 30 gai/ha, 21 DAT, STEME) was 0% and the inhibition at […] ([12]; pyroxasulfone solo 7.5 gai/ha) was 35%. For the same compound, the inhibition at 30 g/ha ([12]; pyroxasulfone solo 30 gai/ha) was 65%, the pest or weed control at […] ([7]; Papaver rhoeas, 504 h, PAPRH, solo pyroxasulfone (WG 85%) 7.5 gai/ha, 21 DAT) was 0% and the pest or weed control at 15 g/ha ([7]; Papaver rhoeas, 504 h, PAPRH, solo pyroxasulfone (WG 85%) 15 gai/ha, 21 DAT) was 0%. For the same compound, the pest or weed control at 30 g/ha ([7]; Papaver rhoeas, 504 h, PAPRH, solo pyroxasulfone (WG 85%) 30 gai/ha, 21 DAT) was 30%, the pest or weed control at 60 g/ha ([7]; Papaver rhoeas, 504 h, PAPRH, solo pyroxasulfone (WG 85%) 60 gai/ha, 21 DAT) was 60% and the inhibition at 15 g/ha ([7]; Papaver rhoeas, 504 h, pyroxasulfone solo 15 gai/ha, 21 DAT, PAPRH) was 0%. It also gave an inhibition at 60 g/ha ([7]; Papaver rhoeas, 504 h, pyroxasulfone solo 60 gai/ha, 21 DAT, PAPRH) of 60%, an inhibition at […] ([13]; pyroxasulfone solo 7.5 gai/ha) of 25% and an inhibition at 15 g/ha ([13]; pyroxasulfone solo 15 gai/ha) of 30%. It also gave a pest or weed control at 15 g/ha ([8]; Setaria viridis, 504 h, SETVI, solo pyroxasulfone (WG 85%) 15 gai/ha, 21 DAT) of 40%, an inhibition at 60 g/ha ([9]; Echinochloa crus-galli, 504 h, pyroxasulfone solo 60 gai/ha, 21 DAT, ECHCG, read-out: % activity) of 80% and an inhibition at […] ([10]; Lolium multiflorum, 504 h, pyroxasulfone solo 7.5 gai/ha, 21 DAT, LOLMU) of 40%. It also gave an inhibition at 15 g/ha ([10]; Lolium multiflorum, 504 h, pyroxasulfone solo 15 gai/ha, 21 DAT, LOLMU) of 65%, an inhibition at 30 g/ha ([10]; Lolium multiflorum, 504 h, pyroxasulfone solo 30 gai/ha, 21 DAT, LOLMU) of 70% and an inhibition at 15 g/ha [14] of 70%. For the same compound, the inhibition at […] ([15]; pyroxasulfone solo 7.5 gai/ha) was 20% and the inhibition at 15 g/ha ([15]; pyroxasulfone solo 15 gai/ha) was 40%.
